Laboratory results: PubChem BioAssay AID256 (DTP/NCI, 2004)
Values joined by “and” are separate entries in the source; they are usually repeats but may differ in a detail not shown here. Equal entries are not always repeated. Inconclusive results and toxic doses are left out.

Test system: CD2F1 mice, L1210 leukemia ip, survival T/C
Test: NCI In Vivo Anticancer Drug Screen. Data for tumor model L1210 Leukemia (intraperitoneal) in CD2F1 (CDF1) mice
Conditions: higher = longer survival
Summary of the method: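 Each value reflects a quotient of treated over vehicle control outcomes in mice with a transplanted tumor.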

[1] = endpoint: mean survival time, dose: 25.0 mg/kg/injection, schedule: Q01DX009 (ip), vehicle: saline
[2] = endpoint: mean survival time, dose: 50.0 mg/kg/injection, schedule: Q01DX009 (ip), vehicle: saline with Tween-80
[3] = endpoint: mean survival time, dose: 100.0 mg/kg/injection, schedule: Q01DX009 (ip), vehicle: saline with Tween-80
[4] = endpoint: mean survival time, dose: 200.0 mg/kg/injection, schedule: Q01DX009 (ip), vehicle: saline with Tween-80
[5] = endpoint: mean survival time, dose: 100.0 mg/kg/injection, schedule: Q04DX003 (ip), vehicle: saline with Tween-80

## O=c1[nH]c(=O)n(C2CC(O)C(CO)O2)cc1C(F)(F)F (stereo not drawn)
endpoint: mean survival time, dose: 16.0 mg/kg/injection, schedule: Q01DX009 (ip), vehicle: water
  T/C: 152 % of control
endpoint: mean survival time, dose: 16.0 mg/kg/injection, schedule: Q03HX016 (ip), vehicle: water
  T/C: 123 % of control
endpoint: mean survival time, dose: 16.0 mg/kg/injection, schedule: Q03HX024 (ip), vehicle: water
  T/C: 171 % of control
endpoint: mean survival time, dose: 64.0 mg/kg/injection, schedule: Q01DX009 (ip), vehicle: water
  T/C: 152 % of control
endpoint: mean survival time, dose: 64.0 mg/kg/injection, schedule: Q04DX003 (ip), vehicle: water
  T/C: 118 % of control
endpoint: mean survival time, dose: 128.0 mg/kg/injection, schedule: Q03HX016 (ip), vehicle: water
  T/C: 157 % of control
endpoint: mean survival time, dose: 128.0 mg/kg/injection, schedule: Q03HX024 (ip), vehicle: water
  T/C: 109 % of control
endpoint: mean survival time, dose: 128.0 mg/kg/injection, schedule: Q04DX003 (ip), vehicle: water
  T/C: 112 % of control
endpoint: mean survival time, dose: 128.0 mg/kg/injection, schedule: Q08DX002 (ip), vehicle: water
  T/C: 100 % of control
endpoint: mean survival time, dose: 256.0 mg/kg/injection, schedule: Q01DX001 (ip), vehicle: water
  T/C: 108 % of control
endpoint: mean survival time, dose: 256.0 mg/kg/injection, schedule: Q01DX009 (ip), vehicle: water
  T/C: 112 % of control
endpoint: mean survival time, dose: 256.0 mg/kg/injection, schedule: Q03HX008 (ip), vehicle: water
  T/C: 152 % of control
endpoint: mean survival time, dose: 256.0 mg/kg/injection, schedule: Q03HX016 (ip), vehicle: water
  T/C: 163 % of control
endpoint: mean survival time, dose: 256.0 mg/kg/injection, schedule: Q04DX003 (ip), vehicle: water
  T/C: 118 % of control
endpoint: mean survival time, dose: 256.0 mg/kg/injection, schedule: Q08DX002 (ip), vehicle: water
  T/C: 109 % of control
endpoint: mean survival time, dose: 512.0 mg/kg/injection, schedule: Q01DX001 (ip), vehicle: water
  T/C: 114 % of control
endpoint: mean survival time, dose: 512.0 mg/kg/injection, schedule: Q03HX008 (ip), vehicle: water
  T/C: 153 % of control
endpoint: mean survival time, dose: 512.0 mg/kg/injection, schedule: Q08DX002 (ip), vehicle: water
  T/C: 112 % of control
endpoint: mean survival time, dose: 1024.0 mg/kg/injection, schedule: Q08DX002 (ip), vehicle: water
  T/C: 114 % of control
endpoint: mean survival time, dose: 2048.0 mg/kg/injection, schedule: Q01DX001 (ip), vehicle: water
  T/C: 121 % of control
endpoint: mean survival time, dose: 2048.0 mg/kg/injection, schedule: Q08DX002 (ip), vehicle: water
  T/C: 124 % of control

## COC(=O)C1C2(C)CCc3cc(OC)ccc3C2=CC(=O)C1(C)C(=O)OC (stereo not drawn)
endpoint: mean survival time, dose: 100.0 mg/kg/injection, schedule: Q04DX003 (sc), vehicle: steriod suspending solution
  T/C: 97 % of control
endpoint: mean survival time, dose: 200.0 mg/kg/injection, schedule: Q04DX003 (sc), vehicle: steriod suspending solution
  T/C: 103 % of control
endpoint: mean survival time, dose: 400.0 mg/kg/injection, schedule: Q04DX003 (sc), vehicle: steriod suspending solution
  T/C: 98 % of control

## O=NN(CCCl)C(=O)NC1CCC(=O)NC1=O (stereo not drawn)
endpoint: median survival time, dose: 15.0 mg/kg/injection, schedule: Q01DX001 (ip), vehicle: saline with Tween-80
  T/C: 344 % of control
endpoint: median survival time, dose: 20.0 mg/kg/injection, schedule: Q01DX001 (ip), vehicle: saline with Tween-80
  T/C: 344 % of control
endpoint: median survival time, dose: 25.0 mg/kg/injection, schedule: Q01DX001 (ip), vehicle: saline with Tween-80
  T/C: 344 % of control
endpoint: median survival time, dose: 30.0 mg/kg/injection, schedule: Q01DX001 (ip), vehicle: saline with Tween-80
  T/C: 344 % of control

## NC(N)=NNc1ccccc1
endpoint: mean survival time, dose: 6.25 mg/kg/injection, schedule: Q01DX009 (ip), vehicle: saline
  T/C: 100 % of control
endpoint: mean survival time, dose: 12.5 mg/kg/injection, schedule: Q01DX009 (ip), vehicle: saline
  T/C: 100 % of control
[1]
  T/C: 96 % of control

## O=C(Nc1nccs1)c1ccc(Cl)cc1
[2]
  T/C: 96 % of control
[3]
  T/C: 96 % of control
[4]
  T/C: 92 % of control

## C=CC[n+]1cc2c3ccccc3c(N)cc2c2ccccc21
endpoint: mean survival time, dose: 1.56 mg/kg/injection, schedule: Q04DX003 (ip), vehicle: water
  T/C: 106 % of control
endpoint: mean survival time, dose: 3.13 mg/kg/injection, schedule: Q04DX003 (ip), vehicle: water
  T/C: 108 % of control
endpoint: mean survival time, dose: 6.25 mg/kg/injection, schedule: Q04DX003 (ip), vehicle: water
  T/C: 98 % of control

## CC[N+](CC)(CCOc1ccc(C(C)(C)CC(C)(C)C)cc1)Cc1ccccc1
endpoint: mean survival time, dose: 5.0 mg/kg/injection, schedule: Q04DX003 (ip), vehicle: saline
  T/C: 102 % of control

## N#Cc1cc(N2CC2)c([N+](=O)[O-])cc1[N+](=O)[O-]
endpoint: mean survival time, dose: 100.0 mg/kg/injection, schedule: Q01DX001 (ip), vehicle: Klucel (hydroxypropylcellulose) (HPC)
  T/C: 102 % of control
endpoint: mean survival time, dose: 200.0 mg/kg/injection, schedule: Q01DX001 (ip), vehicle: Klucel (hydroxypropylcellulose) (HPC)
  T/C: 103 % of control
endpoint: mean survival time, dose: 400.0 mg/kg/injection, schedule: Q01DX001 (ip), vehicle: Klucel (hydroxypropylcellulose) (HPC)
  T/C: 103 % of control

## CCOC(=O)NC1CCc2cc(OC)c(OC)c(OC)c2-c2ccc(OC)c(=O)cc21 (stereo not drawn)
endpoint: median survival time, dose: 2.5 mg/kg/injection, schedule: Q01DX005 (ip), vehicle: Klucel (hydroxypropylcellulose) (HPC)
  T/C: 171 % of control
endpoint: median survival time, dose: 3.0 mg/kg/injection, schedule: Q01DX005 (ip), vehicle: Klucel (hydroxypropylcellulose) (HPC)
  T/C: 164 % of control
endpoint: median survival time, dose: 5.0 mg/kg/injection, schedule: Q01DX005 (ip), vehicle: Klucel (hydroxypropylcellulose) (HPC)
  T/C: 179 % of control and 187 % of control
endpoint: median survival time, dose: 8.33 mg/kg/injection, schedule: Q01DX005 (ip), vehicle: Klucel (hydroxypropylcellulose) (HPC)
  T/C: 107 % of control

## O=C[N]([Hg][Cl])c1ccccc1
endpoint: mean survival time, dose: 6.25 mg/kg/injection, schedule: Q01DX009 (ip), vehicle: saline with Tween-80
  T/C: 86 % of control

## C=CCOC(OCC=C)C(OCC=C)OCC=C
[5]
  T/C: 102 % of control
endpoint: mean survival time, dose: 200.0 mg/kg/injection, schedule: Q04DX003 (ip), vehicle: saline with Tween-80
  T/C: 96 % of control
endpoint: mean survival time, dose: 400.0 mg/kg/injection, schedule: Q04DX003 (ip), vehicle: saline with Tween-80
  T/C: 96 % of control

## CSc1nc(NC2OCC(O)C(O)C2O)c(Br)c(=O)n1C (stereo not drawn)
endpoint: median survival time, dose: 12.5 mg/kg/injection, schedule: Q01DX005 (ip), vehicle: saline with Tween-80
  T/C: 98 % of control
endpoint: median survival time, dose: 25.0 mg/kg/injection, schedule: Q01DX005 (ip), vehicle: saline with Tween-80
  T/C: 100 % of control
endpoint: median survival time, dose: 50.0 mg/kg/injection, schedule: Q01DX005 (ip), vehicle: saline with Tween-80
  T/C: 101 % of control
endpoint: median survival time, dose: 100.0 mg/kg/injection, schedule: Q01DX005 (ip), vehicle: saline with Tween-80
  T/C: 102 % of control
endpoint: median survival time, dose: 200.0 mg/kg/injection, schedule: Q01DX005 (ip), vehicle: saline with Tween-80
  T/C: 98 % of control

## Cn1c(=O)c2[nH]c(NCc3ccccc3)nc2n(C)c1=O
endpoint: mean survival time, dose: 12.5 mg/kg/injection, schedule: Q01DX005 (ip), vehicle: distilled water + Tween-80
  T/C: 93 % of control
endpoint: mean survival time, dose: 25.0 mg/kg/injection, schedule: Q01DX005 (ip), vehicle: distilled water + Tween-80
  T/C: 90 % of control
endpoint: mean survival time, dose: 50.0 mg/kg/injection, schedule: Q01DX005 (ip), vehicle: distilled water + Tween-80
  T/C: 90 % of control
endpoint: mean survival time, dose: 100.0 mg/kg/injection, schedule: Q01DX005 (ip), vehicle: distilled water + Tween-80
  T/C: 94 % of control
endpoint: mean survival time, dose: 200.0 mg/kg/injection, schedule: Q01DX005 (ip), vehicle: distilled water + Tween-80
  T/C: 90 % of control

## COc1ccc(/C=C2/Cc3cccc4c([N+](=O)[O-])ccc2c34)cc1
endpoint: mean survival time, dose: 100.0 mg/kg/injection, schedule: Q01DX001 (ip), vehicle: saline with Tween-80
  T/C: 89 % of control
endpoint: mean survival time, dose: 200.0 mg/kg/injection, schedule: Q01DX001 (ip), vehicle: saline with Tween-80
  T/C: 86 % of control
endpoint: mean survival time, dose: 400.0 mg/kg/injection, schedule: Q01DX001 (ip), vehicle: saline with Tween-80
  T/C: 102 % of control

## CCCC/C=C/C(=O)OCC
[2]
  T/C: 91 % of control and 96 % of control
[3]
  T/C: 103 % of control and 101 % of control
[4]
  T/C: 103 % of control and 101 % of control

## Cc1cc([N+](=O)[O-])c2ccccc2[n+]1[O-]
[5]
  T/C: 100 % of control

## N=C(N)SCc1cccs1
[1]
  T/C: 100 % of control
endpoint: mean survival time, dose: 50.0 mg/kg/injection, schedule: Q01DX009 (ip), vehicle: saline
  T/C: 103 % of control
endpoint: mean survival time, dose: 100.0 mg/kg/injection, schedule: Q01DX009 (ip), vehicle: saline
  T/C: 95 % of control

## Cc1ccc(S(=O)(=O)N/N=C/c2ccccc2Cl)cc1
endpoint: mean survival time, dose: 12.5 mg/kg/injection, schedule: Q01DX009 (ip), vehicle: Klucel (hydroxypropylcellulose) (HPC)
  T/C: 93 % of control
endpoint: mean survival time, dose: 25.0 mg/kg/injection, schedule: Q01DX009 (ip), vehicle: Klucel (hydroxypropylcellulose) (HPC)
  T/C: 91 % of control
endpoint: mean survival time, dose: 50.0 mg/kg/injection, schedule: Q01DX009 (ip), vehicle: Klucel (hydroxypropylcellulose) (HPC)
  T/C: 90 % of control
endpoint: mean survival time, dose: 100.0 mg/kg/injection, schedule: Q01DX009 (ip), vehicle: Klucel (hydroxypropylcellulose) (HPC)
  T/C: 98 % of control
